Test systems include SK-MEL-2 melanoma; SF-539 CNS; SNB-75 CNS; KM12 colon; 786-0 renal; A549 NSCLC; SF-268 CNS; COLO 205 colon; TK-10 renal; HCC-2998 colon.
Holding throughout (test): NCI anticancer screen, dose series, 48 h

Each structure is given as a SMILES string. Values joined by “and” are separate entries in the source; they are usually repeats but may differ in a detail not shown here. Identical values can stand only once.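 Protocol summary: plate cells (96-well), add compound at 5 concentrations, incubate 48 h, interpolate endpoints linearly. GI50 = concentration required for 50% inhibition of growth. At the TGI there is no net growth.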

Turning to `COc1ccc2cc(-c3c(-c4ccncc4)nc(-c4ccc(S(C)(=O)=O)cc4C)n3C)ccc2c1`, the GI50 is 6.78 µM in the test with SK-MEL-2 melanoma; 10.8 µM in the test on SF-539 CNS; 6.67 µM in the test on SNB-75 CNS; 8.05 µM in the test with KM12 colon; 11.4 µM with 786-0 renal; 9.04 µM in the test on A549 NSCLC. Further, the GI50 in the test on SF-268 CNS was 11.1 µM; in the test with COLO 205 colon, 8.25 µM; in the test with TK-10 renal it was 5.82 µM; in the test with HCC-2998 colon, 12 µM. The TGI in the test with SK-MEL-2 melanoma, with SF-539 CNS, with SNB-75 CNS, in the test with KM12 colon, in the test with 786-0 renal and in the test with A549 NSCLC was more than 25 µM throughout. The TGI in the test with SF-268 CNS is more than 25 µM; in the test with COLO 205 colon, more than 20.1 µM; with TK-10 renal, 23.2 µM; with HCC-2998 colon it was more than 25 µM.
Turning to `CN1CC[C@]2(C)c3ccc(O)cc3CC3CCCC1C32C` (some centres undefined), the TGI in the test with SK-MEL-2 melanoma, with SF-539 CNS, in the test on SNB-75 CNS, with KM12 colon, with 786-0 renal and in the test on A549 NSCLC was more than 100 µM each time. For the same compound, the TGI in the test with SF-268 CNS, in the test with COLO 205 colon, in the test on TK-10 renal and in the test on HCC-2998 colon was more than 100 µM throughout.
With `COc1ccc(Cn2c3c(cc(OS(=O)(=O)C(F)(F)F)c2=O)Cc2ccccc2-3)cc1`, the GI50 in the test on SK-MEL-2 melanoma is 14.5 µM; in the test on SF-539 CNS, 5.29 µM; in the test on SNB-75 CNS, more than 100 µM; in the test on KM12 colon it was 41.1 µM; in the test with 786-0 renal, 3.87 µM; in the test with A549 NSCLC it was 9.95 µM. The GI50 in the test with SF-268 CNS was 8.54 µM; in the test with COLO 205 colon, 61.1 µM; in the test on TK-10 renal, 19.5 µM. In addition, the TGI was 50 µM and > 100 µM in the test with SK-MEL-2 melanoma; 50 µM and > 100 µM with SF-539 CNS; more than 100 µM in the test with SNB-75 CNS; 50 µM and > 100 µM in the test with KM12 colon; 50 µM and > 100 µM in the test with 786-0 renal; 50 µM and > 100 µM in the test with A549 NSCLC. The TGI is 50 µM and > 100 µM in the test on SF-268 CNS; 50 µM and > 100 µM in the test on COLO 205 colon; 50 µM and > 100 µM with TK-10 renal; 50 µM in the test with HCC-2998 colon.
`C=CC(=O)Nc1cc2c(Nc3ccc(F)c(Cl)c3)ncnc2cc1OCCCN1CCOCC1`: the GI50 with SK-MEL-2 melanoma is 1.96 µM and 2.17 µM; in the test with SF-539 CNS, 1.58 µM and 3.89 µM; with SNB-75 CNS, 0.47 µM and 1.06 µM; with KM12 colon it was 3.18 µM and 5.3 µM; with 786-0 renal, 2.04 µM and 3.04 µM; in the test with A549 NSCLC, 2.37 µM and 5.1 µM. Besides, the GI50 with SF-268 CNS was 1.77 µM and 3.47 µM; in the test on COLO 205 colon it was 2.42 µM and 4.59 µM; with TK-10 renal, < 0.01 µM and 0.00217 µM; with HCC-2998 colon, 1.82 µM and 2.67 µM. In addition, the TGI with SK-MEL-2 melanoma was 3.79 µM and > 6.51 µM; with SF-539 CNS, 3.5 µM and > 10 µM; in the test with SNB-75 CNS it was 4.54 µM and > 7.95 µM; in the test with KM12 colon, 11.9 µM and > 10 µM; in the test with 786-0 renal, 10.9 µM and > 10 µM; in the test with A549 NSCLC it was 17 µM and > 10 µM. For the same compound, the TGI with SF-268 CNS was 5.13 µM and > 10 µM; in the test with COLO 205 colon, 7.32 µM and > 10 µM; in the test on TK-10 renal, 9.6 µM and 6.78 µM; with HCC-2998 colon, 3.46 µM and > 6.08 µM.
In the case of `CCOc1cccc(/C=N/NC(=O)C(=O)Nc2cccc(C(F)(F)F)c2)c1O`, the GI50 in the test on SK-MEL-2 melanoma is 5.3 µM; with SF-539 CNS it was 2.18 µM; with SNB-75 CNS, 5.38 µM; in the test on KM12 colon, 3 µM; in the test on 786-0 renal, 3.27 µM; with A549 NSCLC, 2.04 µM. Besides, the GI50 with SF-268 CNS is 1.24 µM; with COLO 205 colon, 2.43 µM; in the test on TK-10 renal, 4.3 µM; in the test with HCC-2998 colon, 3.28 µM. The TGI was more than 100 µM in the test on SK-MEL-2 melanoma; 11.2 µM in the test with SF-539 CNS; 57.8 µM with SNB-75 CNS; more than 100 µM with KM12 colon; 41.3 µM in the test with 786-0 renal; more than 100 µM in the test with A549 NSCLC. The TGI in the test on SF-268 CNS is 97 µM; in the test with COLO 205 colon it was more than 100 µM; in the test with TK-10 renal, more than 100 µM; with HCC-2998 colon, more than 100 µM.
`CNCCn1c(=O)c2cc(OC)c(OC)cc2c2ccc3cc4c(cc3c21)OCO4`: the GI50 with SK-MEL-2 melanoma was 0.533 µM; with SF-539 CNS, 0.133 µM; in the test with SNB-75 CNS it was 0.127 µM; in the test with KM12 colon, 0.219 µM; in the test with 786-0 renal, 0.109 µM; with A549 NSCLC, 0.116 µM. Further, the GI50 in the test with SF-268 CNS was 0.0888 µM; in the test with COLO 205 colon, 0.0753 µM; in the test with TK-10 renal it was 0.513 µM; in the test with HCC-2998 colon it was 0.167 µM. In addition, the TGI in the test with SK-MEL-2 melanoma is 1.53 µM; in the test on SF-539 CNS, 0.424 µM; in the test on SNB-75 CNS it was 5.53 µM; in the test on KM12 colon it was 4.98 µM; in the test on 786-0 renal it was 0.537 µM; with A549 NSCLC, 0.638 µM. Also, the TGI with SF-268 CNS was 5.52 µM; in the test with COLO 205 colon, 0.735 µM; in the test with TK-10 renal, 1.56 µM; in the test with HCC-2998 colon it was 0.968 µM.
In the case of `CC(CCC(=O)O)C(=O)O` (centres undefined), the TGI in the test on SK-MEL-2 melanoma, in the test on SF-539 CNS, with SNB-75 CNS, with KM12 colon, with 786-0 renal and with A549 NSCLC was more than 100 µM each time. The TGI with SF-268 CNS, with COLO 205 colon, with TK-10 renal and in the test on HCC-2998 colon was more than 100 µM each time.
For `COc1ccc(/C=C2\CCCC(C(NO)c3ccc(OC)cc3)C2=NO)cc1` (centres undefined), the TGI in the test on SK-MEL-2 melanoma is more than 100 µM; in the test with SF-539 CNS it was 83.3 µM; in the test on SNB-75 CNS, 79.6 µM; with KM12 colon, more than 100 µM; in the test on 786-0 renal it was more than 100 µM; with A549 NSCLC it was more than 100 µM. The TGI with SF-268 CNS, with COLO 205 colon, in the test on TK-10 renal and in the test on HCC-2998 colon was more than 100 µM in each case.
As to `CS(=O)(=O)CSCSSCS(C)(=O)=O`, the TGI was 46.7 µM in the test on SK-MEL-2 melanoma; 53.5 µM with SF-539 CNS; more than 100 µM in the test with SNB-75 CNS; more than 100 µM in the test with KM12 colon; 41.3 µM with 786-0 renal; more than 100 µM in the test on A549 NSCLC. Moreover, the TGI in the test with SF-268 CNS is 77.5 µM; in the test with COLO 205 colon, 38 µM; in the test on TK-10 renal, more than 100 µM; with HCC-2998 colon, more than 100 µM.

(Values after PubChem BioAssay (NCI).)
